Source: ChEMBL document CHEMBL5550160, “Leveraging a rationally designed veliparib-based anilide eliciting anti-leukemic effects for the design of pH-responsive polymer nanoformulation” (Eur J Med Chem, 2024)

Key:
[1] = target: T1, Polyamine deacetylase HDAC10 (Homo sapiens) (UniProt Q969S8); assay: Inhibition of HDAC10 (unknown origin) assessed as residual activity at 4.12 x 10^-8M (reference value: 101.54%); settings: dose 4.12 10^-8M
T1 sequence (whole entry): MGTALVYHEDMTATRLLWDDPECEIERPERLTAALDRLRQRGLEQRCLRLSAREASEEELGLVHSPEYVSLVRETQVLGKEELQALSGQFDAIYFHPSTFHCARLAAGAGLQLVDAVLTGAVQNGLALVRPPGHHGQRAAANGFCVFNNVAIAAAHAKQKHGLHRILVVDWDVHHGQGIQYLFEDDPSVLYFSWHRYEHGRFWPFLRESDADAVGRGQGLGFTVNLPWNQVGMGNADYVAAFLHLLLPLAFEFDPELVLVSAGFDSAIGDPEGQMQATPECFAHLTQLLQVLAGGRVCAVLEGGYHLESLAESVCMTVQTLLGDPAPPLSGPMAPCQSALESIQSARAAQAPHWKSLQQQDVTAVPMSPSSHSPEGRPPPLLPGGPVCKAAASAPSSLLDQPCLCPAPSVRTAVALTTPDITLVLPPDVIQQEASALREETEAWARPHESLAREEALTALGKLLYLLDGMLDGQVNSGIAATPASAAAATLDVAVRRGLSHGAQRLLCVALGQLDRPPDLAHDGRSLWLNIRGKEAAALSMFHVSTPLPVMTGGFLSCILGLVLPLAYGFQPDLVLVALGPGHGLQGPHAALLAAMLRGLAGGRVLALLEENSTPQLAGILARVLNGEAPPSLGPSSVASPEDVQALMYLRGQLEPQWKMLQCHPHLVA

[2] = target: T2, Histone deacetylase 7 (Homo sapiens) (UniProt Q8WUI4); assay: Inhibition of HDAC7 (unknown origin) assessed as residual activity at 1 x 10^-5M (reference value: 102.66%)
T2 sequence (whole entry): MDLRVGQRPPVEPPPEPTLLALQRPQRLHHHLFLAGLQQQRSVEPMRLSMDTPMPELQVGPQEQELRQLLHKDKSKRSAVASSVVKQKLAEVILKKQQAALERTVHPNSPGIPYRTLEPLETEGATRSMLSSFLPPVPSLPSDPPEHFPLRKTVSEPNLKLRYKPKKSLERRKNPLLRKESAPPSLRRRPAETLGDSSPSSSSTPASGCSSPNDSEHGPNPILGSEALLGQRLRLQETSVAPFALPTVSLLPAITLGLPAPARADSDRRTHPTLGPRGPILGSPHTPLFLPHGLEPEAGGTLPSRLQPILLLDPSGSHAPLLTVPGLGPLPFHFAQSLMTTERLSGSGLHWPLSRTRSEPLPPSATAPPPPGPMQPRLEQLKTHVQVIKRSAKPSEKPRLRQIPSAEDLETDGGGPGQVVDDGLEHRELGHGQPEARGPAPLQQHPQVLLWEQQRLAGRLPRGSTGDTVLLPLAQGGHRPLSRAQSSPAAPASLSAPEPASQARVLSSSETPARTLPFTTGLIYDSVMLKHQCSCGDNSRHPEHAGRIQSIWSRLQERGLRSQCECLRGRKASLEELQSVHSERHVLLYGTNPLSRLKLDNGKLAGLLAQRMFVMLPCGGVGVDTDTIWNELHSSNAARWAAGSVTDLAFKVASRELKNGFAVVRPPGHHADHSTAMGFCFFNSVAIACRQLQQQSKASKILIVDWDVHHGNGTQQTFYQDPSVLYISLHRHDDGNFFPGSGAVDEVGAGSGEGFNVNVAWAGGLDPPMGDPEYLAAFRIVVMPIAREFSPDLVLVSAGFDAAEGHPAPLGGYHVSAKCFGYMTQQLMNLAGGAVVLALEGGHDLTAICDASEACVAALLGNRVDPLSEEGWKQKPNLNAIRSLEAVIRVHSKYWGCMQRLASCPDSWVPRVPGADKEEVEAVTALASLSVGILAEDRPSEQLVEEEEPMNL

Histone deacetylase 3 = Histone deacetylase 3 (Homo sapiens, UniProt O15379); assay: Inhibition of HDAC3 (unknown origin) using p53 residues 379 to 382 [RHKK(Ac)] as fluorogenic substrate assessed as residual activity at 5.08 x 10^-10M (reference value: 103.08%); settings: dose 5.08 10^-10M
[3] = target: T3, Protein deacetylase HDAC6 (Homo sapiens) (UniProt Q9UBN7); assay: Inhibition of HDAC6 (unknown origin) using p53 residues 379 to 382 [RHKK(Ac)] as fluorogenic substrate assessed as residual activity at 3.33 x 10^-6M (reference value: 101.06%); settings: dose 3.33 10^-6M
T3 sequence (whole entry): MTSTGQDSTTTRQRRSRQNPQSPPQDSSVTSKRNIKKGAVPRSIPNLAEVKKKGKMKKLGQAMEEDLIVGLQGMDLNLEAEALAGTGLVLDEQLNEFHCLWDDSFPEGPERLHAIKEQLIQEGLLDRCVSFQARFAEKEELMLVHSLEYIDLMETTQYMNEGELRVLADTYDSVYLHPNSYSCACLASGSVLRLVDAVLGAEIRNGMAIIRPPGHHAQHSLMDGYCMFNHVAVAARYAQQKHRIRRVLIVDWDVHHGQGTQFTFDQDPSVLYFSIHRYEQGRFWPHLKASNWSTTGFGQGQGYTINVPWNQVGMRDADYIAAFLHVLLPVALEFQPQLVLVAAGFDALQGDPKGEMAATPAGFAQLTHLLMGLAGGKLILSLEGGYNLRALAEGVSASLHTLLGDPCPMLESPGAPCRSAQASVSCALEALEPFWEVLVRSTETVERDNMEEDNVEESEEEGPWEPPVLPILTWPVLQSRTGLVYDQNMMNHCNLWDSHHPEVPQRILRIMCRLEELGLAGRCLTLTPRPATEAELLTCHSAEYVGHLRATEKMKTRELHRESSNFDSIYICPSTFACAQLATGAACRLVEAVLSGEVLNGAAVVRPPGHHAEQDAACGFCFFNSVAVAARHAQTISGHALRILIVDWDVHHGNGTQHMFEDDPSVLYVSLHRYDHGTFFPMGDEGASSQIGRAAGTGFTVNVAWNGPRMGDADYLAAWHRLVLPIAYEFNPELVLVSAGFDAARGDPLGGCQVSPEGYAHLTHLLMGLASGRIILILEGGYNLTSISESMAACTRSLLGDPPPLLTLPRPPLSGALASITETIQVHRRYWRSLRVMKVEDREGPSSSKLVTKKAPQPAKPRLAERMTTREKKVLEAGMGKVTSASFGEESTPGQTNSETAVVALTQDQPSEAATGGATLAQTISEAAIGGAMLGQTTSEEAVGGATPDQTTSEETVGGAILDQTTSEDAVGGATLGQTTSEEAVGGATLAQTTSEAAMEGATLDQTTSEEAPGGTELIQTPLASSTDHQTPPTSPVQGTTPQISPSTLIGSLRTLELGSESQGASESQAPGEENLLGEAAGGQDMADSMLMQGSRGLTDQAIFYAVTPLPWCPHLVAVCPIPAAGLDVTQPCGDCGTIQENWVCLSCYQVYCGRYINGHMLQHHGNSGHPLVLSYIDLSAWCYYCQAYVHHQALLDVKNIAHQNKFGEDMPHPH

Sequence of Histone deacetylase 3 (O15379 whole entry, the tested form may be a part): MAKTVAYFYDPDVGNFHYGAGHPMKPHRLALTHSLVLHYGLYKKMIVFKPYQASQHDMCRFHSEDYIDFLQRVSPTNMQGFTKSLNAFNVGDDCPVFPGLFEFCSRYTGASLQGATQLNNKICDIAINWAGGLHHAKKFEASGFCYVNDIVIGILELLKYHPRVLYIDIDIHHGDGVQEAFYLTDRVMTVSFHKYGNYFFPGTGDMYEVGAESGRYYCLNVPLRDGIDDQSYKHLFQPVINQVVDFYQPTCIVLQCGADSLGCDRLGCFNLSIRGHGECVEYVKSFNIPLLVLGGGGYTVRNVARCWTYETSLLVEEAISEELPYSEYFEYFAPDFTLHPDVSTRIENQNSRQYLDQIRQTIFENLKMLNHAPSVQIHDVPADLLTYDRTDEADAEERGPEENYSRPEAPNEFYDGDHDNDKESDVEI

Work on `NC(=O)c1cccc2[nH]c(-c3ccc(NCc4ccc(C(=O)Nc5ccccc5N)cc4)cc3)nc12` yielded an Activity [1] of 102%, an Activity [2] of 92% and an Activity (Histone deacetylase 3) of 107%. The Activity [3] was 105%.
